Laboratory results published in patent US6492360B1, “Phthalazine derivatives phosphodiesterase 4 inhibitors” (Zambon Group S.p.A., priority 1998, dated 2002).
Where a name gives a salt, the structure may show the parent alone.

Target: PDE 4
Assay: PDE 4 enzyme inhibition (SPA)
Assay type: biochemical
Details: PDE 4 purified from human PMNs; cAMP 1 μM
Protocol: a) Human Polymorphonuclear Leukocyte Isolation
The polymorphonuclear leukocytes (PMNs) were isolated from peripheral blood of healthy volunteers according to Boyum A. (Scand. J. Immunol., 1976, 5th suppl., 9). Briefly, the PMNs were purified by Ficoll-Paque gradient centrifugation followed by sedimentation on dextran and the erythrocyte contamination was eliminated by hypotonic lysis.
b) PDE 4 Enzyme Purification
The human PMNs were suspended in TRIS/HCl buffer (10 mM, pH 7.8) containing MgCl2 (5 mM), EGTA (4 mM), mercaptoethanol (5 mM), TRITON-X100 (1%), pepstatin A (1 μM), PMSF (100 μM) and leupeptin (1 μM), and homogenised by Polytron homogeniser. The homogenate was centrifuged at 25,000×g for 30 minutes at 4° C. and the PDE 4 enzyme was purified by ion exchange chromatography using the FPLC technique according to Schudt C. et al. (Naunyn-Schmidberg's Arch. Pharmacol., 1991, 334, 682). The supernatant was seeded on a UNO Q12 column (Bio-Rad) and the enzyme was eluted by sodium acetate linear gradient from 50 mM to 1M using a flow rate of 4.5 ml/minutes. The fractions containing enzymatic activity were pooled, dialysed against water and concentrated. The PDE 4 enzyme was stored at, −20° C. in the presence of ethylene glycol (30% v/v) until the use.
The enzyme activity was evaluated with a Scintillation Proximity Assay (SPA) kit (Amersham). The enzymatic reaction was performed in a final volume of 100 μl of TRIS/HCl buffer (50 mM, pH 7.5), MgCl2 (8.3 mM), EGTA (1.7 mM), cAMP (1 μM) and [^3H]cAMP (˜100.000 dpm) as tracer. The compounds of the invention, the reference ones or the vehicle were added at different concentrations. As reference compounds 6,7-dimethoxy-4-pyridin-4-yl-methyl)2H-phthalazin-1-one (reference 1) and 6,7-dimethoxy-4-(piperidin-4-yl-methyl)2H-phthalazin-1-one (reference 2) embraced by the general formula of the patent application EP-0 722 936 (in the name of Eisai) were used. The reaction was started by adding 1.5 μg protein and incubated for 40 minutes at 30° C. SPA beads (50 μl) containing 18 mM zinc sulphate were added to stop the reaction and after 20 minutes at room temperature the radioactivity was measured using a scintillation counter.
The IC50 value refers to the nanomolar concentration of the compound required to inhibit cyclic nucleotide hydrolysis by 50%, and it was calculated by non-linear regression analysis.

IC50	Compound
0.012 ± 0.002 µM	COc1ccc2c(c1)CN(C(=O)Cc1ccccc1)N=C2Cc1c(Cl)cncc1Cl [Compound 13, 1-[4-(3,5-Dichloro-pyridin-4-ylmethyl)-7-methoxy-1H-phthalazin-2-yl]-2-phenyl-ethanone]
0.312 ± 0.048 µM	FC(F)Oc1ccc2c(Cc3c(Cl)cncc3Cl)nnc(N3CCOCC3)c2c1 [Compound 55, 1-(3,5-Dichloro-pyridin-4-ylmethyl)-6-difluoromethoxy-4-morpholin-4-yl-phthalazine]
0.0071 ± 0.0005 µM	COc1ccc2c(Cc3c(Cl)cncc3Cl)nncc2c1C#CCN(C)Cc1ccccc1 [Compound 35, Benzyl-{3-[1-(3,5-dichloro-pyridin-4-ylmethyl)-6-methoxy-phthalazin-5-yl]-prop-2-ynyl}-methyl-amine dihydrochloride]
0.019 ± 0.003 µM	COc1ccc2c(Cc3c(Cl)cncc3Cl)nncc2c1C=CCCCc1ccccc1 [Compound 33, 1-(3,5-Dichloro-pyridin-4-ylmethyl)-6-methoxy-5-(5-phenyl-pent-1-enyl)phthalazine]
0.061 ± 0.0024 µM	COc1ccc2c(Cc3c(Cl)cncc3Cl)nncc2c1C#CCO [Compound 37, 3-[1-(3,5-Dichloro-pyridin-4-ylmethyl)-6-methoxy-phthalazin-5-yl]-prop-2-yn-1-ol]
0.036 ± 0.004 µM	COc1ccc2c(c1)CN(C(N)=O)N=C2Cc1c(Cl)cncc1Cl [Compound 9, 4-(3,5-Dichloro-pyridin-4-ylmethyl)-7-methoxy-1H-phthalazine-2-carboxylic acid amide]
0.028 ± 0.004 µM	CCC(=O)N1Cc2cc(OC)ccc2C(Cc2c(Cl)cncc2Cl)=N1 [Compound 10, 1-[4-(3,5-Dichloro-pyridin-4-ylmethyl)-7-methoxy-1H-phthalazin-2-yl]-propan-1-one]
0.072 ± 0.016 µM	COC(=O)N1Cc2cc(OC)ccc2C(Cc2c(Cl)cncc2Cl)=N1 [Compound 16, 4-(3,5-Dichloro-pyridin-4-ylmethyl)-7-methoxy-1H-phthalazine-2-carboxylic acid methyl ester]
0.036 ± 0.009 µM	COc1ccc2c(Cc3c(Cl)cncc3Cl)nn(S(C)(=O)=O)c(=O)c2c1 [Compound 24, 4-(3,5-Dichloro-pyridin-4-methyl)-2-methanesulfonyl-7-methoxy-2H-phthalazin-1-one]
0.0964 ± 0.0073 µM	COc1ccc2c(Cc3c(Cl)cncc3Cl)nncc2c1C#CCCCN1CCOCC1 [Compound 36, 1-(3,5-Dichloro-pyridin-4-ylmethyl)-6-methoxy-5-(5-morpholin-4-yl-pent-1-ynyl)-phthalazine dihydrochloride]
0.03 ± 0.008 µM	COc1ccc2c(c1)CN(C(=O)c1ccccc1)N=C2Cc1c(Cl)cncc1Cl [Compound 12, [4-(3,5-Dichloro-pyridin-4-ylmethyl)-7-methoxy-1H-phthalazin-2-yl]-phenyl-methanone]
0.01 ± 0.002 µM	COc1ccc2c(Cc3c(Cl)cncc3Cl)nncc2c1C#CCCCc1ccccc1 [Compound 32, 1-(3,5-Dichloro-pyridin-4-ylmethyl)-6-methoxy-5-(5-phenyl-pent-1-ynyl)-phthalazine]
